Measured values published in patent US8710098B2, “Group of amino substituted benzoyl derivatives and their preparation and their use” (priority 2008, dated 2014).

Biological target: T1, hA3G degradation mediated by HIV-1 Vif (UniProt P69723+Q9HC16)
T1 construct: expressed in transfected cells
Assay: Screening experiment for up-regulation activity to hA3G (YFP-fused hA3G co-expressed with HIV-1 Vif, fluorescence)
Format: cell-based, human
Conditions: YFP fluorescence of cells co-expressing Vif and hA3G-YFP; excitation 485 nm, detection 520 nm; averages of duplicates
Text: Based on the advances making research on the hA3G degradation mediated by HIV-1 Vif, this invention establishes a high throughput anti-HIV-1 drug screening model using hA3G degradation mediated by HIV-1 Vif as target, to screen small molecule active compounds capable of inhibiting this degradation process. The function principle of this model is that HIV-1 Vif protein and hA3G fused yellow fluorescent protein (YFP) co-expressed in the cells, then the intracellular fluorescence intensity (at […]) decreases owing to the degradation of hA3G caused by Vif and subsequent degradation of YEP fused on hA3G. By means of measuring the change of fluorescent intensity, the influence of the screened compounds on the degradation of hA3G caused by Vif can quantitatively be analyzed. Simultaneously, to differentiate the non-specific inhibitory effect of diverse ubiquitin degradation route in the samples, this invention establishes a recheck model based on the detection of P53 degradation caused by the product of adenovirus early gene, to assure that the positive samples screened out by the proposed model can specifically block the degradation of hA3G caused by Vif.
Screening Experiment for Up-Regulation Activity to hA3G
The cells are picked up and cultured a culture bottle. When the cells grow full of the culture bottle, old culture medium is discarded and the cells are digested with digestion medium. When the cells turn round, the digestion medium is discarded and the culture medium is added in at once, the bottom of the bottle is gently blown with a pipette to make the cells disengage the bottle bottom and disperse into single cell suspension. After counting the cells using blood cell counting chamber, the cell suspension is inoculated into a culture dish for transfection. The medium containing the plasmid to be transfected and the transfection reagents is gently mixed up and incubated at room temperature. The medium is then added into the supernatant of the cell culture and cultured for a certain period of time. The old culture medium is then sucked out, the cells are digested with digestive medium, the digestive medium is subsequently discarded and culture medium is immediately added. The medium is gently blown to disperse the cells into single cell suspension. After counting the cells using blood cell counting chamber, the cells are ready for inoculation.
Samples of compounds[…]Pure tested compounds are dissolved in DMSO, the solution is diluted with equal proportional distilled water. The diluent is used to test the cell systems.
Sample solution of different concentration is added into the supernatant of a cell culture. After the cells are continuously cultured, old culture medium is sucked out and the cells are blown with PBS buffer until the cells completely disengage from the culture bottle.
The fluorescence intensity values of the cell suspension with test compound samples, positive control samples and negative control samples are respectively measured with fluorometer, the excitation wavelength is 485 nm and the detection wavelength 520 nm. Averages of duplicated measurements are taken as the results.
The measured fluorescence intensity values of the negative control samples (blink sample) subtracted from those of test compound samples, the results are taken as YFP fluorescence of different groups. Relative fluorescence intensity=fluorescence intensity of a test sample group/fluorescence intensity of the positive control group×100% Inhibition rate of degradation=(test sample group−negative control group)/(positive control group−negative control group)×100%

T1 sequence (P69723 whole entry): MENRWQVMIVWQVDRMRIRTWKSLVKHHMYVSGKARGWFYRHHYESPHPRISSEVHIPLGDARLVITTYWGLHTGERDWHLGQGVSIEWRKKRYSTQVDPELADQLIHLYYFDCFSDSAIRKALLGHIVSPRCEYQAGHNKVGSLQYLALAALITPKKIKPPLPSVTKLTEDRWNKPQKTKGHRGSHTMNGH
T1 sequence (Q9HC16 whole entry): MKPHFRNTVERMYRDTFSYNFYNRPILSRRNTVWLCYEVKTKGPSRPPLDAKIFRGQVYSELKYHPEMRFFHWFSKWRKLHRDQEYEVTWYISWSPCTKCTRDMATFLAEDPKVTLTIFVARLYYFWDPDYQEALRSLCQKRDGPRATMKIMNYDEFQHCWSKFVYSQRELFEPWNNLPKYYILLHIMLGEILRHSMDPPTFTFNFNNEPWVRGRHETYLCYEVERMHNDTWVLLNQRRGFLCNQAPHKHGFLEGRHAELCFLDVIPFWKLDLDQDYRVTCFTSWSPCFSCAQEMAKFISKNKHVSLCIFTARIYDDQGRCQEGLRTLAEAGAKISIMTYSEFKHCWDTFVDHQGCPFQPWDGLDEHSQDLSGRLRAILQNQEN

Structure (SMILES) | hA3G up-regulation activity (%)
COc1ccc(C(=O)Nc2cc(OC)c(OC)c(OC)c2)cc1NC(=O)CCl [Compound 1, N-(3′,4′,5′-trimethoxyphenyl)-3-(2-chloroacetamido)-4-methoxybenzamide] | 36.3%
CNc1cc(C(=O)Nc2cc(OC)nc(OC)n2)ccc1O [Compound 3, N-(2′,6′-dimethoxypyrimidinyl-4′-) 3-methylamino-4-hydroxylbenzamide] | 20.2%
COc1ccc(C(=O)Oc2cc(OC)c(OC)c(OC)c2)cc1N [Compound 4] | 1.6%
COc1ccc(C(=O)Sc2cc(OC)c(OC)c(OC)c2)cc1N [Compound 5, S-(3′,4′,5′-trimethoxyphenyl) 3-amino-4-methoxybenzenecarbothioate] | 14.4%
COc1ccc(C(=O)Cc2cc(OC)c(OC)c(OC)c2)cc1N [Compound 6] | 28.7%
CCC(=O)Nc1cc(C(=O)Sc2cc(OC)c(OC)c(OC)c2)ccc1OC [Compound 9, S-(3′,4′,5′-trimethoxyphenyl) 3-propionamido-4-methoxybenzenecarbothiolate] | 46.5%
CCC(=O)Nc1cc(C(=O)Cc2cc(OC)c(OC)c(OC)c2)ccc1OC [Compound 10, 1′-(3-propionamido-4-methoxy-benzoyl)methylene-3′,4′,5′-trimethoxybenzene] | 28.9%
COc1ccc(C(=O)Nc2cc(OC)c(OC)c(OC)c2)cc1NC(C)=O [Compound 11] | 22.2%
COc1ccc(C(=O)Oc2cc(OC)c(OC)c(OC)c2)cc1NC(C)=O [Compound 12] | 31.6%
COc1ccc(C(=O)Cc2cc(OC)c(OC)c(OC)c2)cc1NC(C)=O [Compound 13] | 42.1%
COc1ccc(C(=O)Nc2cc(OC)c(OC)c(OC)c2)cc1NC(=O)C(C)Cl (stereo not shown) [Compound 14] | 11.2%
COc1ccc(C(=O)Sc2cc(OC)c(OC)c(OC)c2)cc1NC(=O)C(C)Cl (stereo not shown) [Compound 15] | 19.4%
COc1ccc(C(=O)Cc2cc(OC)c(OC)c(OC)c2)cc1NC(=O)C(C)Cl (stereo not shown) [Compound 16] | 17.3%
COc1ccc(C(=O)Nc2cc(OC)c(OC)c(OC)c2)cc1NC(=O)CF [Compound 17] | 31.1%
COc1ccc(C(=O)Oc2cc(OC)c(OC)c(OC)c2)cc1NC(=O)CF [Compound 18] | 34.5%
COc1ccc(C(=O)Sc2cc(OC)c(OC)c(OC)c2)cc1NC(=O)CF [Compound 19] | 44.3%
COc1ccc(C(=O)Cc2cc(OC)c(OC)c(OC)c2)cc1NC(=O)CF [Compound 20] | 56.0%
COc1ccc(C(=O)Sc2cc(OC)c(OC)c(OC)c2)cc1NC(=O)C(C)F (stereo not drawn) [Compound 21, S-(3′,4′,5′-trimethoxyphenyl)-3-(2-fluoropropionamido)-4-methoxybenzenecarbothiolate] | 21.1%
COc1ccc(C(=O)Sc2cc(OC)c(OC)c(OC)c2)cc1NC(C)=O [Compound 22] | 24.6%
COc1ccc(C(=O)Nc2cc(OC)c(OC)c(OC)c2)cc1NC(=O)C(C)F (stereo not shown) [Compound 23] | 29.3%
COc1ccc(C(=O)Oc2cc(OC)c(OC)c(OC)c2)cc1NC(=O)C(C)F (stereo not shown) [Compound 24] | 18.6%
COc1ccc(C(=O)Cc2cc(OC)c(OC)c(OC)c2)cc1NC(=O)C(C)F (stereo not shown) [Compound 25, 3-(2″-fluoropropionamido)-4-methoxybenzoylmethylene-3′,4′,5′-trimethoxybenzene] | 19.4%
COc1ccc(C(=O)Oc2cc(OC)c(OC)c(OC)c2)cc1NC(=O)CCl [Compound 27] | 32.1%
COc1ccc(C(=O)Cc2cc(OC)c(OC)c(OC)c2)cc1NC(=O)CCl [Compound 28] | 33.6%
COc1ccc(C(=O)Nc2cc(OC)c(OC)c(OC)c2)cc1NC(=O)CBr [Compound 29] | 25.3%
COc1ccc(C(=O)Oc2cc(OC)c(OC)c(OC)c2)cc1NC(=O)CBr [Compound 30] | 15.2%

Structure (SMILES) | hA3G up-regulation activity (%)
CCC(Br)C(=O)Nc1cc(C(=O)Nc2cc(OC)c(OC)c(OC)c2)ccc1OC (stereo not shown) [Compound 31] | 26.4%
CCC(=O)Nc1cc(C(O)Cc2cc(OC)c(OC)c(OC)c2)ccc1OC (stereo not shown) [Compound 32, 1-(3′-propionamido-4′-methoxyphenyl)-2-(3″,4″,5″-trimethoxyphenyl)ethanol] | 17.6%
CCC(=O)Nc1cc(C(=O)Nc2cc(OC)nc(OC)n2)ccc1OC [Compound 33] | 21.5%
CNc1cc(C(=O)Nc2cc(OC)c(OC)c(OC)c2)ccc1O [Compound 34] | 38.3%
CCNc1cc(C(=O)Nc2ccc(OC)c(OC)c2)ccc1OC [Compound 36] | 8.6%
CCNc1cc(C(=O)Nc2ccc(OC)cc2)ccc1OC [Compound 37] | 7.7%
CNc1cc(C(=O)Nc2cc(OC)cc(OC)c2)ccc1OC [Compound 40, N-(3′,5′-dimethoxyphenyl)-3-methylamino-4-methoxybenzamide] | 12.7%
COc1cc(NC(=O)c2ccc(OC)c(N(C)C)c2)cc(OC)c1 [Compound 41] | 21.8%
CCNc1cc(C(=O)Nc2ccc(OC)cc2)ccc1OC [Compound 42] | 34.3%
COc1ccc(NC(=O)c2ccc(OC)c(NC(C)C)c2)cc1 [Compound 43] | 26.4%
CNc1cc(CNc2cc(OC)c(OC)c(OC)c2)ccc1OC [Compound 45] | 27.6%
CCC(=O)Nc1cc(C(=O)Nc2cccc(OC)c2)ccc1OC [Compound 46] | 29.1%
CCC(=O)Nc1cc(C(=O)Nc2cc(OC)ncn2)ccc1OC [Compound 47] | 18.2%
CCC(=O)Nc1cc(C(=O)Nc2cc(OC)co2)ccc1OC [Compound 48, N-(4′-methoxyfuryl-2′-)-4-methoxy-3-propionamidobenzamide] | 16.4%
CCC(=O)Nc1cc(C(=O)Nc2cc(OC)c[nH]2)ccc1OC [Compound 49, N-(4′-methoxypyrryl-2′-)-4-methoxy-3-propionamidobenzamide] | 9.8%
CCC(=O)Nc1cc(C(=O)Nc2cccc(O)c2)ccc1OC [Compound 50] | −3.1%
CCC(=O)Nc1cc(C(=O)Nc2ccnc(O)c2)ccc1OC [Compound 51] | 0.9%
CCC(=O)Nc1cc(C(=O)Nc2cc(OC)c(O)c(OC)c2)ccc1OC [Compound 58] | 16.6%
CCC(=O)Nc1cc(NC(=O)c2cc(OC)c(OC)c(OC)c2)ccc1OC [Compound 59] | 19.8%
CCC(=O)Nc1cc(C(=O)Nc2ccccc2)ccc1OC [Compound 60] | 16.3%
CCC(=O)Nc1cc(C(=O)Nc2ccncn2)ccc1OC [Compound 61, N-(pyrimidyl-4′-)-4-methoxy-3-propionamidobenzamide] | 11.8%
CCC(=O)Nc1cc(OC(=O)c2cc(OC)c(OC)c(OC)c2)ccc1OC [Compound 62] | 40.1%
CCC(=O)Nc1cc(OC)ccc1C(=O)Nc1cc(OC)c(OC)c(OC)c1 [Compound 63, N-(3′,4′,5′-trimethoxyphenyl)-2-propionamido-4-methoxybenzamide] | 21.3%
CCC(=O)Nc1ccc(C(=O)Nc2cc(OC)c(OC)c(OC)c2)cc1OC [Compound 64, N-(3′,4′,5′-trimethoxyphenyl)-3-methoxy-4-propionamidobenzamide] | 11.7%
CCC(=O)Nc1cc(C(=O)Nc2ccc(OC(F)(F)F)cc2)ccc1OC [Compound 67] | 11.3%
COc1ccc(C(=O)Nc2cc(OC)c(OC)c(OC)c2)cc1C#N [Compound 68, N-(3′,4′,5′-trimethoxyphenyl)-3-cyano-4-methoxybenzamide] | 9.8%
